Laboratory results published in ChEMBL document CHEMBL4251631, “New antiglioma zwitterionic pronucleotides with an FdUMP framework” (Eur J Med Chem, 2018).

Legend:
MRC5 = assay: Cytostatic activity against human MRC5 cells assessed as reduction in cell viability after 48 hrs by MTT assay; assay type: functional, cell-based; details: MRC5, 48 h
U-118-MG = assay: Cytostatic activity against human U118MG cells assessed as reduction in cell viability after 48 hrs by MTT assay; assay type: functional, cell-based
U-87 MG = assay: Cytostatic activity against human U87MG cells assessed as reduction in cell viability after 48 hrs by MTT assay; assay type: functional, cell-based, U-87MG ATCC
T98G = assay: Cytostatic activity against human T98G cells assessed as reduction in cell viability after 48 hrs by MTT assay; assay type: functional, cell-based
[1] = Selectivity index, ratio of IC50 for human MRC5 cells to IC50 for human U87MG cells; assay type: toxicity; details: MRC5 cells and U87MG cells, read-out: Ratio IC50
[2] = Selectivity index, ratio of IC50 for human MRC5 cells to IC50 for human T98G cells; assay type: toxicity; details: MRC5 cells and T98G cells, read-out: Ratio IC50
T47D = assay: Cytostatic activity against human T47D cells assessed as reduction in cell viability after 48 hrs by MTT assay; assay type: functional, cell-based
[3] = Half life in RPMI/FBS cell culture media 9:1 (v/v) at 2 mM by HPLC analysis; assay type: physicochemical; details: cattle
[4] = Stability in RPMI cell culture media at 2 mM by HPLC analysis; assay type: physicochemical; details: 2000 µM
[5] = Half life in human serum at 2 mM by HPLC analysis; assay type: ADME, cell-free
[6] = Selectivity index, ratio of IC50 for human MRC5 cells to IC50 for human U118MG cells; assay type: toxicity; details: MRC5 cells and U118MG cells, read-out: Ratio IC50
Caco-2 = assay: Cytostatic activity against human Caco2 cells assessed as reduction in cell viability after 48 hrs by MTT assay; assay type: functional, cell-based; details: Caco-2, 48 h
HeLa = assay: Cytostatic activity against human HeLa cells assessed as reduction in cell viability after 48 hrs by MTT assay; assay type: functional, cell-based
[7] = Half life in RPMI/FBS cell culture media 9:1 (v/v) assessed as cumulative concentration of metabolites of known anticancer activity at 2 mM by HPLC analysis; assay type: ADME; details: 2000 µM

Compound | IC50 (U-87 MG) | IC50 (T47D) | half-life at 2000 µM [3] | Stability [4] | half-life at 2000 µM [5] | IC50 (Caco-2) | IC50 (HeLa) | t1/2 [7] | IC50 (MRC5) | IC50 (U-118-MG) | IC50 (T98G) | selectivity ratio [1] | selectivity ratio [2] | selectivity ratio [6]
Oc1ccc[n+](Cc2ccccc2)c1 | > 200 µM |  |  |  |  |  |  |  | > 200 µM | > 200 µM | > 200 µM |  |  | 
Oc1cccnc1 | > 500 µM |  |  |  |  |  |  |  | > 500 µM | > 500 µM | > 500 µM |  |  | 
O=c1[nH]c(=O)n([C@H]2C[C@H](O)[C@@H](COP(=O)(O)Oc3ccc4ncccc4c3)O2)cc1F | 10.7 µM | 8.11 µM | 26 h | Stable | 26.2 h | 1.4 µM | 7.3 µM |  | 1.3 µM | 7.07 µM | 1.9 µM | < 1 | < 1 | < 1
O=c1[nH]c(=O)n([C@H]2C[C@H](O)[C@@H](COP(=O)(O)Oc3ccccc3)O2)cc1F | 33.7 µM | 13.4 µM | 28 h | Stable | 52.3 h | 26.6 µM | 15.2 µM |  | 36.7 µM | 14.6 µM | 32.2 µM | 1 | 1 | 3
CCCCCCCCCc1ccc(OP(=O)(O)OC[C@H]2O[C@@H](n3cc(F)c(=O)[nH]c3=O)C[C@@H]2OC(=O)c2ccccc2)cc1 | 6.73 µM | 26.7 µM | > 120 h | Stable | > 120 h | 20.4 µM | 40.1 µM |  | 39.9 µM | 11 µM | 6.74 µM | 6 | 6 | 4
O=C(O[C@H]1C[C@H](n2cc(F)c(=O)[nH]c2=O)O[C@@H]1COP(=O)(O)Oc1ccc2ncccc2c1)c1ccccc1 | 0.88 µM | 7.14 µM | 7.7 h | Stable | 16.5 h | 2.46 µM | 7.3 µM |  | 1.3 µM | 0.79 µM | 1.3 µM | 1 | 1 | 2
CCOC(=O)C[n+]1cccc2cc(O)ccc21 | > 200 µM |  |  |  |  |  |  |  | 162 µM | > 200 µM | > 200 µM |  |  | 
O=c1[nH]c(=O)n([C@H]2C[C@H](O)[C@@H](COP(=O)(O)Oc3cccnc3)O2)cc1F | 39.8 µM | 9.35 µM | 16.7 h | Stable | 19.9 h | 3.39 µM | 0.7 µM |  | 8.5 µM | 27.5 µM | 1.2 µM | < 1 | 7 | < 1
CCOC(=O)C[n+]1cccc2cc(OP(=O)([O-])OC[C@H]3O[C@@H](n4cc(F)c(=O)[nH]c4=O)C[C@@H]3OC(=O)c3ccccc3)ccc21 | 0.53 µM | 21.6 µM | 2 h | Stable | 5.9 h | 28.9 µM | 0.6 µM | 15.6 h | 34.9 µM | 0.76 µM | 13 µM | 66 | 3 | 46
CCCCCCCCCC[n+]1cccc(OP(=O)([O-])OC[C@H]2O[C@@H](n3cc(F)c(=O)[nH]c3=O)C[C@@H]2OC(=O)c2ccccc2)c1 | 0.67 µM | 8.73 µM | 16.5 h | Stable | 8.3 h | 12.9 µM | 1.2 µM |  | 14.1 µM | 0.32 µM | 0.4 µM | 21 | 35 | 44
CCOC(=O)C[n+]1cccc(O)c1 | > 200 µM |  |  |  |  |  |  |  | > 200 µM | > 200 µM | > 200 µM |  |  | 
CCCCCCCCCC[n+]1cccc(O)c1 | 158 µM |  |  |  |  |  |  |  | 126 µM | 125 µM | 55.6 µM |  |  | 

Continued, in another order:

IC50 (U-87 MG) | IC50 (T47D) | half-life at 2000 µM [3] | Stability [4] | half-life at 2000 µM [5] | IC50 (Caco-2) | IC50 (HeLa) | t1/2 [7] | Compound | IC50 (MRC5) | IC50 (U-118-MG) | IC50 (T98G) | selectivity ratio [1] | selectivity ratio [2] | selectivity ratio [6]
0.59 µM | 3.91 µM | 14.8 h | Stable | 37.3 h | 1.38 µM | 1.26 µM |  | C[n+]1cccc(OP(=O)([O-])OC[C@H]2O[C@@H](n3cc(F)c(=O)[nH]c3=O)C[C@@H]2OC(=O)c2ccccc2)c1 | 5.75 µM | 3.15 µM | 3.48 µM | 10 | 2 | 2
1.28 µM | 11.9 µM | > 120 h | Stable | > 120 h | 15.7 µM | 27.2 µM |  | C[N+]1(C)CCC(OP(=O)([O-])OC[C@H]2O[C@@H](n3cc(F)c(=O)[nH]c3=O)C[C@@H]2OC(=O)c2ccccc2)CC1 | 8.3 µM | 4.42 µM | 6.7 µM | 7 | 1 | 2
0.66 µM | 3.43 µM | 10.8 h | Stable | 14.4 h | 0.43 µM | 0.53 µM |  | O=C(O[C@H]1C[C@H](n2cc(F)c(=O)[nH]c2=O)O[C@@H]1COP(=O)([O-])Oc1ccc[n+](Cc2ccccc2)c1)c1ccccc1 | 38.5 µM | 1.47 µM | 2.6 µM | 58 | 15 | 26
0.61 µM | 33 µM | 54 h | Stable | 96.3 h | 11.7 µM | 1.5 µM |  | C[N+](C)(CCOP(=O)([O-])OC[C@H]1O[C@@H](n2cc(F)c(=O)[nH]c2=O)C[C@@H]1OC(=O)c1ccccc1)Cc1ccccc1 | 0.6 µM | 3.69 µM | 2 µM | 1 | < 1 | < 1
35.9 µM | > 80 µM | > 120 h | Stable | > 120 h | > 80 µM | > 80 µM |  | C[N+]1(Cc2ccccc2)C2CCC1CC(OP(=O)([O-])OC[C@H]1O[C@@H](n3cc(F)c(=O)[nH]c3=O)C[C@@H]1OC(=O)c1ccccc1)C2 (stereo not given in full) | 62.5 µM | 66.3 µM | 49.9 µM | 2 | 1 | 1
0.58 µM | 12.7 µM | 1.1 h | Stable | 1.4 h | 2.62 µM | 6.1 µM | 8.6 h | CCOC(=O)C[n+]1cccc(OP(=O)([O-])OC[C@H]2O[C@@H](n3cc(F)c(=O)[nH]c3=O)C[C@@H]2OC(=O)c2ccccc2)c1 | 8.6 µM | 1.54 µM | 1.6 µM | 15 | 5 | 6
0.8 µM | 6.88 µM | 6.6 h | Stable | 5.1 h | 1.02 µM | 5.86 µM |  | O=C(O[C@H]1C[C@H](n2cc(F)c(=O)[nH]c2=O)O[C@@H]1COP(=O)(O)Oc1ccccc1)c1ccccc1 | 1.27 µM | 0.97 µM | 0.81 µM | 2 | 2 | 1
1.79 µM | 39.6 µM | 20 h | Stable | 116 h | 8.12 µM | 3.6 µM |  | C[N+](C)(C)CCOP(=O)([O-])OC[C@H]1O[C@@H](n2cc(F)c(=O)[nH]c2=O)C[C@@H]1OC(=O)c1ccccc1 | 1.3 µM | 7.54 µM | 24.7 µM | < 1 | < 1 | < 1
0.71 µM | 14.4 µM | 6.7 h | Stable | 17.8 h | 2.5 µM | 6.9 µM |  | O=C(O[C@H]1C[C@H](n2cc(F)c(=O)[nH]c2=O)O[C@@H]1COP(=O)(O)Oc1cccnc1)c1ccccc1 | 15.6 µM | 0.92 µM | 1.3 µM | 22 | 12 | 17
